Read-outs that look alike come from different tables or passages of the source.
Q: Which solid form stability (40-60° C., high humidity (75% RH)) does the source give for `CN1c2ccccc2C(NCCCCCCC(=O)O)c2ccc(Cl)cc2S1(=O)=O.O=C(O)C(=O)O` (centres unmarked) [Tianeptine mono-oxalate Form A, Tianeptine Mono-Oxalate Form A] here?
A: started to convert into tianeptine hemi-oxalate Form A

Q: What about the solid form stability (milled without water) of the same molecule?
A: stable

Q: What about the solid form stability (stored at 25° C. and 60-75% RH) of the same molecule?
A: stable

Q: And the solid form stability (stored at 40-60° C. without humidity (RH≈0%))?
A: stable

Q: What about the solid form stability (water kneading) of the same molecule?
A: started to convert into tianeptine hemi-oxalate Form A
